Experiment in all cases: growth of human tumour cells (NCI), 48 h
Test [1] deals with MOLT-4 leukemia.
In test [2] the test system is K-562 leukemia.
Test [3] relates to HL-60(TB) leukemia.
In test [4] the test system is MALME-3M melanoma.
In test [5] the test system is UACC-62 melanoma.
Test [6] deals with SK-MEL-28 melanoma.
The test system of test [7] is UACC-257 melanoma.
Test [8] relates to KM12 colon.
Test [9] relates to SF-295 CNS.
For test [10], the system named is NCI/ADR-RES ovarian.
For test [11], the system named is NCI-H226 lung.
Test [12] has as its system M14 melanoma.
The subject of test [13] is COLO 205 colon.
Test [14] relates to OVCAR-8 ovarian.
Test [15] deals with SN12C renal.
The test system of test [16] is LOX IMVI melanoma.
Test [17] deals with U251 CNS.
The subject of test [18] is PC-3 prostate.
Test [19] relates to A498 renal.

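Protocol summary: plate cells (96-well), add compound at 5 concentrations, incubate 48 h, interpolate endpoints linearly. The concentration for full growth arrest is given as TGI.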 Bounds are passed on as bounds.

Results on eight molecules are retold here after PubChem BioAssay (NCI).

Turning to `CCOP(=O)(OCC)C(C)(C)N(C)/C(F)=N/C(F)(F)F`, the TGI in test [1], in [2], in test [3], in test [4], in [5] and in [6] was more than 100 µM each time. The TGI in [7], in [8], in test [9], in test [10], in test [11] and in [12] was more than 100 µM each time. For the same molecule, the TGI in test [13], in [14], in test [15], in test [16], in test [17] and in test [18] was more than 100 µM throughout.

Regarding `O=c1[nH]nc(Cc2ccc(Cl)cc2)n1/N=C/c1ccco1`, the TGI in test [1], in [2], in test [3], in [4], in test [5] and in [6] was more than 100 µM in each case. The TGI in test [7], in test [19], in test [8], in test [9], in [10] and in [11] was more than 100 µM throughout. For the same molecule, the TGI in test [12], in test [13], in test [14], in test [15], in [17] and in test [18] was more than 100 µM throughout.

For `Clc1ccc(Nc2nnc(CCCCCCCCc3nnc(Nc4ccc(Cl)cc4)o3)o2)cc1`, the TGI in test [1] was more than 100 µM; in [2], more than 100 µM; in [4] it was more than 100 µM; in [5], 78.4 µM; in test [6], more than 100 µM; in test [7], more than 100 µM. In addition, the TGI in test [19] was more than 100 µM; in test [8], 99.2 µM; in [9] it was more than 100 µM; in [10] it was more than 100 µM; in test [11], more than 100 µM; in test [12], more than 100 µM. In addition, the TGI in test [13], in test [15], in test [17] and in test [18] was more than 100 µM throughout.

Regarding `Clc1c(Cl)c(Cl)c2c(nnn2C2CCCO2)c1Cl` (configuration not stated), the TGI in test [1] is 46.3 µM; in [2], 48.7 µM; in test [3], 38.5 µM; in test [4], 80.4 µM; in [5], more than 100 µM; in test [7], more than 100 µM. Also, the TGI in test [19] is 88.7 µM; in [9], more than 100 µM; in test [10], more than 100 µM; in [11] it was more than 100 µM; in test [12] it was more than 100 µM; in test [13], 47.4 µM. For the same molecule, the TGI in [14], in test [15], in test [17] and in test [18] was more than 100 µM in each case.

As for `CCOc1ccc(N/C(=C(/C(Cl)=C(/Cl)Nc2ccccc2)[N+](=O)[O-])n2nnc3ccccc32)cc1`, the TGI in test [1] is more than 100 µM; in test [2], more than 100 µM; in [4] it was 44.4 µM; in test [5] it was 43.5 µM; in test [6], 54.5 µM; in test [7], more than 100 µM. In addition, the TGI in test [19] was more than 100 µM; in [8] it was more than 100 µM; in test [9] it was more than 100 µM; in test [10] it was 53.7 µM; in test [11] it was more than 100 µM; in test [12], 34 µM. Besides, the TGI was found to be 50.6 µM in [13], 47.2 µM in [15], 33.6 µM in test [17] and 58.4 µM in test [18].

Turning to `CCc1c(CN)c(CC)c(CNC2=NCCN2)c(CC)c1CNC1=NCCN1`, the TGI in [1], in test [2], in [4], in test [5], in test [6] and in [7] was more than 100 µM in each case. Further, the TGI in test [19], in [8], in test [9], in test [10], in [11] and in [12] was more than 100 µM in each case. The TGI in test [13], in test [14], in [15], in test [17] and in test [18] was more than 100 µM in each case.

In the case of `Cn1c(NNc2ccccc2)cc(=O)[nH]c1=O`, the TGI in test [1], in [2], in [3], in test [4], in test [5] and in [6] was more than 100 µM in each case. Further, the TGI in test [7] is more than 100 µM; in test [8], 65.3 µM; in [9], more than 100 µM; in [10], more than 100 µM; in test [11], more than 100 µM; in [12] it was more than 100 µM. Further, the TGI in test [13], in test [14], in test [15], in test [16], in test [17] and in [18] was more than 100 µM each time.

`CC(=O)OCC(OC(C)=O)C(OC(C)=O)C(/C=N\Nc1nc2ccccc2c(=O)[nH]1)=N\Nc1nc2ccccc2c(=O)[nH]1` (configuration not stated): the TGI in test [1], in [2], in [3], in test [4], in test [5] and in test [6] was more than 100 µM in each case. In addition, the TGI in test [7] was 34 µM; in [8], more than 100 µM; in [9], more than 100 µM; in test [10] it was more than 100 µM; in test [11] it was more than 100 µM; in test [12], more than 100 µM. Also, the TGI in [13], in test [14], in test [15], in test [16], in test [17] and in test [18] was more than 100 µM throughout.
